Here are results for 38 compounds from patent publication US8846909B2, “Bicyclic heteroaryl kinase inhibitors and methods of use” (University of Rochester, priority 2010, dated 2014).

The target of this experiment is T1, MLK3 (Homo sapiens, UniProt Q16584).
T1 construct: purchased Dundee DU8313
T1 sequence (Q16584 whole entry): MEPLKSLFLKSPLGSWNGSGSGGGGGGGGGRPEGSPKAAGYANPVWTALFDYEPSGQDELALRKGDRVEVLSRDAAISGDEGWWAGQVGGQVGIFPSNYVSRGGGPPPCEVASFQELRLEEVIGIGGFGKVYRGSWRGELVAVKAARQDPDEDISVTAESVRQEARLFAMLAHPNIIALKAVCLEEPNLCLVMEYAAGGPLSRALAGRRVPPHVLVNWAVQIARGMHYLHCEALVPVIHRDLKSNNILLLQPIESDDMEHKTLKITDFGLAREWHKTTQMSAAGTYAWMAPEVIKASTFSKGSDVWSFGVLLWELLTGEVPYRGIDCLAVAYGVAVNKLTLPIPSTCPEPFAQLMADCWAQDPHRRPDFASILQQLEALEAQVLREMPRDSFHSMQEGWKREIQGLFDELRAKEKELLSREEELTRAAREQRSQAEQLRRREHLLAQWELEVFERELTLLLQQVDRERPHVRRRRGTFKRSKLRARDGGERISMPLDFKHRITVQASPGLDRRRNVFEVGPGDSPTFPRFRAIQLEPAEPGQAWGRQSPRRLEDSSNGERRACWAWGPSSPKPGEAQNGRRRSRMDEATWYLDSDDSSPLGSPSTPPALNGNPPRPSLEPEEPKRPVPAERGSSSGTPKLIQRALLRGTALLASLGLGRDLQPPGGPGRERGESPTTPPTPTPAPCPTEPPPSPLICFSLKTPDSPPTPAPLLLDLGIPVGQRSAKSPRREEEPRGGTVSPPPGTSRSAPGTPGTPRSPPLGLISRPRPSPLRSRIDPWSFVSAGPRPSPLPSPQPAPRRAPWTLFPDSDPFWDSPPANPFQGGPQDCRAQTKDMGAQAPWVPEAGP
As to the kind of experiment: Radiometric filter plate MLK3 assay. Note: 2 µM cold ATP (Km). The format is biochemical. Conditions: read-out: MK3 IC50. As to the method:
After a twenty minute incubation, the reactions were washed through filter plates and read on a scintillation counter. Results are shown in Table 10 below, in which +++ indicates ≦0.1 μM, ++ indicates >0.1 μM and ≦1 μM, and + indicates >1 μM.
The IC50 is the concentration needed to halve the response being measured. For the compound `COc1cc(-c2cnc3c(c2)C(=Cc2cccc(C#N)c2)C(=O)N3)cc(OC)c1OC` (mixture of isomers) [Example 134, 3-[2-oxo-5-(3,4,5-trimethoxy-phenyl)-1,2-dihydro-pyrrolo[2,3-b]pyridin-3-ylidenemethyl]-benzonitrile], the IC50 is over 1000 nM.

In the case of `COc1cc(-c2cnc3c(c2)C(=Cc2ccncc2)C(=O)N3)cc(OC)c1OC` (single isomer, unassigned) [Example 129, (E)- and (Z)-3-pyridin-4-ylmethylene-5-(3,4,5-trimethoxy-phenyl)-1,3-dihydro-pyrrolo[2,3-b]pyridin-2-one], the IC50 was over 1000 nM. Regarding `CC(=O)Nc1ccc(-c2cnc3[nH]cc(-c4ccc5[nH]ccc5c4)c3c2)cc1` [Example 3, N-(4-(3-(1H-indol-5-yl)-1H-pyrrolo[2,3-b]pyridin-5-yl)phenyl)acetamide], the IC50 is under 100 nM. `COc1cc(-c2cnc3[nH]cc(-c4ccc5[nH]ccc5c4)c3c2)ccc1N` [Example 5, 4-(3-(1H-indol-5-yl)-1H-pyrrolo[2,3-b]pyridin-5-yl)-2-methoxyaniline]: the IC50 is under 100 nM.

Regarding `CN1CCN(c2cc(-c3cnc4[nH]cc(-c5ccc6[nH]ccc6c5)c4c3)ccn2)CC1` [Example 7, 3-(1H-indol-5-yl)-5-(2-(4-methylpiperazin-1-yl)pyridin-4-yl)-1H-pyrrolo[2,3-b]pyridine], the IC50 is under 100 nM. In the case of `Nc1ccc(-c2cnc3[nH]cc(-c4ccc5[nH]ccc5c4)c3c2)cc1` [Example 8, 4-(3-(1H-indol-5-yl)-1H-pyrrolo[2,3-b]pyridin-5-yl)aniline], the IC50 was under 100 nM. As for `CS(=O)(=O)Nc1ccc(-c2cnc3[nH]cc(-c4ccc5[nH]ccc5c4)c3c2)cc1` [Example 11, N-(4-(3-(1H-indol-5-yl)-1H-pyrrolo[2,3-b]pyridin-5-yl)phenyl)methanesulfonamide], the IC50 is under 100 nM. With `COc1cc(-c2cnc3[nH]cc(-c4ccc(N)cc4)c3c2)cc(OC)c1OC` [Example 15, 4-(5-(3,4,5-trimethoxyphenyl)-1H-pyrrolo[2,3-b]pyridin-3-yl)aniline], the IC50 is under 100 nM. The result for `COc1cc(-c2cnc3[nH]cc(-c4ccc(NC(C)=O)cc4)c3c2)cc(OC)c1OC` [Example 16, N-(4-(5-(3,4,5-trimethoxyphenyl)-1H-pyrrolo[2,3-b]pyridin-3-yl)phenyl)acetamide] reads under 100 nM; that for `COc1cc(-c2cnc3[nH]cc(-c4ccc(N(C)C)nc4)c3c2)cc(OC)c1OC` [Example 19, N,N-dimethyl-5-(5-(3,4,5-trimethoxyphenyl)-1H-pyrrolo[2,3-b]pyridin-3-yl)pyridin-2-amine], under 100 nM; that for `Nc1ncc(-c2cnc3[nH]cc(-c4cnc(N)nc4)c3c2)cn1` [Example 20, 5,5′-(1H-pyrrolo[2,3-b]pyridine-3,5-diyl)dipyrimidin-2-amine], over 1000 nM. Turning to `CN(C)c1ccc(-c2cnc3[nH]cc(-c4ccc(F)c(Cl)c4)c3c2)cn1` [Example 22, 5-(3-(3-chloro-4-fluorophenyl)-1H-pyrrolo[2,3-b]pyridin-5-yl)-N,N-dimethylpyridin-2-amine], the IC50 was over 1000 nM. Regarding `COc1cc(-c2cnc3[nH]cc(-c4ccc5c(ccn5C)c4)c3c2)cc(OC)c1OC` [Example 24, 3-(1-methyl-1H-indol-5-yl)-5-(3,4,5-trimethoxyphenyl)-1H-pyrrolo[2,3-b]pyridine], the concentration for half-maximal inhibition (IC50) is under 100 nM. The value for `COc1cc(-c2cnc3[nH]cc(-c4ccc(C(N)=O)cc4)c3c2)cc(OC)c1OC` [Example 25, 4-(5-(3,4,5-trimethoxyphenyl)-1H-pyrrolo[2,3-b]pyridin-3-yl)benzamide] was under 100 nM. Turning to `COc1ccc(-c2cnc3[nH]cc(-c4ccc(C(N)=O)cc4)c3c2)cc1OC` [Example 26, 4-(5-(3,4-dimethoxyphenyl)-1H-pyrrolo[2,3-b]pyridin-3-yl)benzamide], the half-maximal inhibitory concentration (IC50) is under 100 nM. For the compound `Nc1ccc(-c2cnc3[nH]cc(-c4ccc(F)c(Cl)c4)c3c2)cn1` [Example 29, 5-(3-(3-chloro-4-fluorophenyl)-1H-pyrrolo[2,3-b]pyridin-5-yl)pyridin-2-amine], the IC50 was over 1000 nM.

`c1cc2cc(-c3c[nH]c4ncc(-c5ccc(NCCN6CCCC6)nc5)cc34)ccc2[nH]1` [Example 31, 5-(3-(1H-indol-5-yl)-1H-pyrrolo[2,3-b]pyridin-5-yl)-N-(2-(pyrrolidin-1-yl)ethyl)pyridin-2-amine]: the IC50 is 100 to 1000 nM. The result for `CN(C)Cc1ccc(-c2cnc3[nH]cc(-c4ccc5[nH]ccc5c4)c3c2)cc1` [Example 33, 1-(4-(3-(1H-indol-5-yl)-1H-pyrrolo[2,3-b]pyridin-5-yl)phenyl)-N,N-dimethylmethanamine] reads under 100 nM; that for `COc1cc(-c2cnc3[nH]cc(-c4ccc5[nH]ccc5c4)c3c2)ccc1OCCN(C)C` [Example 35, 2-(4-(3-(1H-indol-5-yl)-1H-pyrrolo[2,3-b]pyridin-5-yl)-2-methoxyphenoxy)-N,N-dimethylethanamine], over 1000 nM. On to `COc1ccc(-c2cnc3[nH]cc(-c4ccc5[nH]ccc5c4)c3n2)cc1OC` [Example 37, 2-(3,4-dimethoxyphenyl)-7-(1H-indol-5-yl)-5H-pyrrolo[3,2-b]pyrazine], for which the IC50 is under 100 nM. In the case of `COc1cc(-c2cnc3[nH]cc(-c4ccc5[nH]ccc5c4)c3n2)ccc1N` [Example 38, 4-(7-(1H-indol-5-yl)-5H-pyrrolo[3,2-b]pyrazin-2-yl)-2-methoxyaniline], the IC50 was under 100 nM. The result for `COc1cc(-c2cnc3[nH]cc(-c4ccc5[nH]ccc5c4)c3n2)ccc1OCCN1CCOCC1` [Example 39, 4-(2-(4-(7-(1H-indol-5-yl)-5H-pyrrolo[3,2-b]pyrazin-2-yl)-2-methoxyphenoxy)ethyl)morpholine] reads under 100 nM; that for `COc1cc(-c2cnc3[nH]c(=O)n(-c4ccc5[nH]ccc5c4)c3n2)cc(OC)c1OC` [Example 40, 1-(1H-indol-5-yl)-6-(3,4,5-trimethoxyphenyl)-1H-imidazo[4,5-b]pyrazin-2(3H)-one], under 100 nM. The result for `Cn1ccc2cc(-n3c(=O)[nH]c4ncc(-c5ccc(O)cc5)nc43)ccc21` [Example 42, 6-(4-hydroxyphenyl)-1-(1-methyl-1H-indol-5-yl)-1H-imidazo[4,5-b]pyrazin-2(3H)-one] reads over 1000 nM. In the case of `Cc1cc(C)cc(-c2cnc3[nH]c(=O)n(-c4ccc5c(ccn5C)c4)c3n2)c1` [Example 43, 6-(3,5-dimethylphenyl)-1-(1-methyl-1H-indol-5-yl)-1H-imidazo[4,5-b]pyrazin-2(3H)-one], the IC50 is over 1000 nM. On to `O=c1[nH]c2ncc(-c3ccncc3)nc2n1-c1ccc2[nH]ccc2c1` [Example 44, 1-(1H-indol-5-yl)-6-(pyridin-4-yl)-1H-imidazo[4,5-b]pyrazin-2(3H)-one], for which the IC50 was over 1000 nM.

With `Cc1cc(C)cc(-c2cnc3[nH]c(=O)n(-c4ccc5[nH]ccc5c4)c3n2)c1` [Example 46, 6-(3,5-dimethylphenyl)-1-(1H-indol-5-yl)-1H-imidazo[4,5-b]pyrazin-2(3H)-one], the IC50 is over 1000 nM. For the compound `O=c1[nH]c2ncc(-c3cc(Cl)cc(Cl)c3)nc2n1-c1ccc2[nH]ccc2c1` [Example 48, 6-(3,5-dichlorophenyl)-1-(1H-indol-5-yl)-1H-imidazo[4,5-b]pyrazin-2(3H)-one], the IC50 is over 1000 nM. The result for `COc1ccc(-c2cnc3[nH]c(=O)n(-c4ccc5[nH]ccc5c4)c3n2)cc1F` [Example 49, 6-(3-fluoro-4-methoxyphenyl)-1-(1H-indol-5-yl)-1H-imidazo[4,5-b]pyrazin-2(3H)-one] reads over 1000 nM; that for `COc1cc(-c2cnc3[nH]c(=O)n(-c4ccc5[nH]ccc5c4)c3n2)ccc1O` [Example 55, 6-(4-hydroxy-3-methoxyphenyl)-1-(1H-indol-5-yl)-1H-imidazo[4,5-b]pyrazin-2(3H)-one], under 100 nM; that for `O=c1[nH]c2ncc(-c3ccc4cc[nH]c4c3)nc2n1-c1ccc2[nH]ccc2c1` [Example 56, 1-(1H-indol-5-yl)-6-(1H-indol-6-yl)-1H-imidazo[4,5-b]pyrazin-2(3H)-one], over 1000 nM. The value for `COc1cc(-c2cnc3[nH]c(=O)n(-c4ccc5[nH]ccc5c4)c3n2)ccc1OCCN1CCOCC1` [Example 57, 1-(1H-indol-5-yl)-6-(3-methoxy-4-(2-morpholinoethoxy)phenyl)-1H-imidazo[4,5-b]pyrazin-2(3H)-one] was under 100 nM. In the case of `O=c1[nH]c2ncc(-c3cc(F)c(O)c(F)c3)nc2n1-c1ccc2[nH]ccc2c1` [Example 59, 6-(3,5-difluoro-4-hydroxyphenyl)-1-(1H-indol-5-yl)-1H-imidazo[4,5-b]pyrazin-2(3H)-one], the IC50 is under 100 nM. The result for `COc1cc(-c2cnc3[nH]c(=O)n(-c4ccc5[nH]ccc5c4)c3n2)ccc1N` [Example 60, 6-(4-amino-3-methoxyphenyl)-1-(1H-indol-5-yl)-1H-imidazo[4,5-b]pyrazin-2(3H)-one] reads under 100 nM; that for `O=c1[nH]c2ncc(-c3cc(F)cc(F)c3)nc2n1-c1ccc2[nH]ccc2c1` [Example 61, 6-(3,5-difluorophenyl)-1-(1H-indol-5-yl)-1H-imidazo[4,5-b]pyrazin-2(3H)-one], over 1000 nM; that for `COc1cc(-c2cnc3[nH]c(=O)n(-c4ccc5[nH]ccc5c4)c3n2)cc(OC)c1O` [Example 62, 6-(4-hydroxy-3,5-dimethoxyphenyl)-1-(1H-indol-5-yl)-1H-imidazo[4,5-b]pyrazin-2(3H)-one], under 100 nM.

On to `COc1cc(OC)cc(-c2cnc3[nH]c(=O)n(-c4ccc5[nH]ccc5c4)c3n2)c1` [Example 65, 6-(3,5-dimethoxyphenyl)-1-(1H-indol-5-yl)-1H-imidazo[4,5-b]pyrazin-2(3H)-one], for which the concentration for half-maximal inhibition (IC50) is over 1000 nM. On to `CN1CCN(c2cc(-c3cnc4[nH]c(=O)n(-c5ccc6[nH]ccc6c5)c4n3)ccn2)CC1` [Example 66, 1-(1H-indol-5-yl)-6-(2-(4-methylpiperazin-1-yl)pyridin-4-yl)-1H-imidazo[4,5-b]pyrazin-2(3H)-one], for which the 50% inhibitory concentration (IC50) is over 1000 nM.
